Assay results reported in paper PMC7324897 (Dose-Response, 2020).
Entries after “also recorded” stand apart in the source; their conditions may differ.

Experiments:
[1] = molecular target: BChE (from human serum) (Homo sapiens, UniProt P06276); experiment: In vitro cholinesterase inhibition assay; format: biochemical
[2] = molecular target: BChE (Homo sapiens, UniProt P06276); experiment: Kinetic study of BChE inhibition; format: biochemical
BChE, sequence (P06276 29-602): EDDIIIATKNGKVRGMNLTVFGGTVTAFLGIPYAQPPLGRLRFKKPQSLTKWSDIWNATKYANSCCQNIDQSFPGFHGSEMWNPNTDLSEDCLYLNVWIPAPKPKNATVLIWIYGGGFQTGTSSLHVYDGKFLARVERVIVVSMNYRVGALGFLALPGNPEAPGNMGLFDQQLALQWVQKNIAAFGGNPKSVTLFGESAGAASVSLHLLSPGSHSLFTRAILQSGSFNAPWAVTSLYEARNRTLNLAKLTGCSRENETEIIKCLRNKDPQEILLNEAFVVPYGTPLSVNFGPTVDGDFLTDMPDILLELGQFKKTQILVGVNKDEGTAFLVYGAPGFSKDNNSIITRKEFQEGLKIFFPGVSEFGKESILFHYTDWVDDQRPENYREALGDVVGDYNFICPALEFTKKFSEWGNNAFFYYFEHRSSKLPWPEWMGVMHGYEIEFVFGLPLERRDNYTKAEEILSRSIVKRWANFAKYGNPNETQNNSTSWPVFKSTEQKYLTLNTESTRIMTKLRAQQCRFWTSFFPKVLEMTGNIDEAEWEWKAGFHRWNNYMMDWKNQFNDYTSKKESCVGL

BChE (from human serum), sequence (P06276 29-602): as above

SMILES: O=C1CN(C(=O)CCn2ccnc2)CC(O)CN1CCc1ccccc1 (centres unmarked) [Compound 5, 4-(3-(1H-imidazol-1-yl)propanoyl)-6-hydroxy-1-phenethyl-1,4-diazepan-2-one]
- IC50 [1]: 1400 nM
- inhibition at 10 µM ([1]; read-out: BChE IR (%), inhibition ratio): 66%
- Ki [2]: 540 ± 70 nM
- Type of BChE inhibition [2]: mixed-type inhibitor; also recorded: mixed-type inhibition
- Inhibition constant Ki, uncompetitive part (Kiu) ([2]; substrate BTC 90-904 μM): 2900 ± 1000 nM
